# Measured values from patent publication US9435795B2, “Enhanced deposition of chromogens utilizing pyrimidine analogs” (Ventana Medical Systems, Inc., priority 2010, dated 2016).
# Legend:
# bcl2 in tonsil tissue = experiment: TSA-IHC tissue staining of bcl2 in tonsil tissue (TA-HQ deposition); details: 10 mM in DAB Chromogen solution; 16 minute primary Ab incubation
# Description: Enhanced DAB deposition was evaluated on a TSA-IHC tissue staining of bcl2 in tonsil tissue. […] Tyramide deposition was performed with and without 10 mM 2-hydroxypyrimidine. […] The percent of cells stained with DAB increased in areas with low bcl2 antigen expression. Formalin fixed paraffin embedded tonsil tissue was mounted on Superfrost slides, deparaffinized and antigen retrieved using CC1 bulk reagent (Ventana® p/n 950-124). […] Slides were counterstained using Hematoxylin II (Ventana® p/n 790-2208) and Bluing Reagent (Ventana® p/n760-2037). The slides were dehydrated using gradient alcohols, cover slipped and viewed using a bright field microscope (FIGS. 23-26).
# [1] = Compatibility and stability of reformulated DAB Chromogen solution with additive; assay type: physicochemical; details: higher concentrations of imidazole; 50 mM L-histidine
# [2] = tested on: HER-2 positive CaLu3 carcinoma cell lines; experiment: ISH tissue staining with HER2 DNA probe on HER-2 3-in-1 mouse xenografts; details: 10 mM in DAB Chromogen solution; CaLu3 carcinoma cells
# Description: ISH tissue staining was examined using enhanced DAB solutions. HER-2 3-in-1 mouse xenografts of HER-2 positive carcinoma cell lines CaLu3, ZR-75-1 and MCF7 were treated with HER2 DNA probe (VMSI 480-4495) and stained with the ultraView™ DAB Chromogen solution or an enhanced DAB Chromogen solution containing 10 mM L-histidine (see FIGS. 21-22). […] The increased DAB deposition was marginal for the strongest ISH signals, but signal intensity for the weaker DAB signals was raised throughout the tissue. The same observation was made with enhanced DAB deposition in IHC.
# ultraView HRP multimer = biological target: T1, ultraView HRP multimer (Armoracia rusticana, UniProt P00433); experiment: Michaelis-Menten kinetics of HRP-oxidized DAB with enhanced DAB chromogen mixtures; assay type: biochemical, horseradish
# T1 construct: purchased Ventana Medical Systems (ultraView kit component)
# T1 sequence (P00433 31-338 limits assumed): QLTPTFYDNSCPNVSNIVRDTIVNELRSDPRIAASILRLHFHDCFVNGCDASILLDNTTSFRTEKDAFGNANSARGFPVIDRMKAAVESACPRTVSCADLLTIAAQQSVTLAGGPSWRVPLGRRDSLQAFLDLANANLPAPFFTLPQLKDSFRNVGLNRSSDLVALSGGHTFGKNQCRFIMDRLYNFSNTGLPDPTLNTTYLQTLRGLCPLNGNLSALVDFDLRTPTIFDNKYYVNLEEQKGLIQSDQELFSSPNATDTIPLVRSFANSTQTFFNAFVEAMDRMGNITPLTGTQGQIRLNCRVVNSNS
# Description: To further study the synergistic effect in the increased apparent Vmax for HRP-oxidized DAB, Michaelis-Menten kinetics were calculated for the best enhanced DAB chromogen mixtures in Table 3. […] The definition of Vmax=kcat·[E]total when the enzyme substrate concentration was at saturation levels. When the concentration of enzyme was kept constant, the apparent Vmax is proportional to kcat (the apparent turnover for HRP or the first order rate constant).
# [3] = biological target: T2, horseradish peroxidase (HRP) (Armoracia rusticana, UniProt P00433); experiment: Plate assay: kinetic screening of enhancers of HRP-mediated DAB oxidation (ultraView Detection Kit, OD 455 nm); assay type: biochemical; details: for Vmax (apparent, HRP-oxidized DAB): no enhancer 18.50; for Percent increase of apparent Vmax of HRP: relative to uView Vmax without enhancement
# T2 construct: purchased VMSI (Ventana Medical Systems, Inc.) 760-500: 253-4290, 253-4292 and 253-4293
# Description: The additives were directly added to a well containing the necessary reagents from the ultraView™ Detection Kit (VMSI 760-500: 253-4290, 253-4292 and 253-4293) in 1× Reaction Buffer (VMSI 950-300) and 0.1% fish gelatin. Fish gelatin was used to help disperse the oxidized DAB and inhibit its precipitation from solution. The ultraView™ Detection Kit was diluted to measure the formation of oxidized DAB by UV-VIS at 455 nm. Additives were tested at set concentrations to determine enhancement in the DAB oxidation reaction. The data were graphed, and the apparent maximum velocity (Vmax) was calculated at each additive concentration level.
# [4] = biological target: T2, horseradish peroxidase (HRP); experiment: Plate assay: enhancers added sequentially to ultraView Detection Kit (synergistic/antagonistic effects); assay type: biochemical; details: NMO added to mixture 4; 50 mM L-histidine or 10 mM pyrimidine added to mixture 5
# Description: The same concentration of reagents from the ultraView™ Detection Kit (VMSI 760-500: 253-4290, 253-4292 and 253-4293) were used in 1× Reaction Buffer™ containing 0.1% fish gelatin for each trial. In each trial, the enhancers were added together one at a time.
structure (smiles),measurement,setting,value
N[C@@H](Cc1c[nH]cn1)C(=O)O [L-Histidine],DAB deposition in TSA-IHC staining (in words),bcl2 in tonsil tissue,increased the DAB deposition on tissue
same,Precipitation of DAB from reformulated DAB Chromogen solution,[1],caused the precipitation of DAB
same,DAB deposition in ISH staining (in words),[2],increased the deposition of DAB
same,Vmax,"ultraView HRP multimer; 10 mM buffer salt with 10 mM pyrimidine, no enhancer 228",300 mOD/min
same,Vmax,"ultraView HRP multimer; 50 mM buffer salt with 10 mM 2-hydroxypyrimidine (FIG. 19: also 10 mM boric acid, 10 mM calcium chloride)",317 mOD/min
same,"Vmax (apparent, HRP-oxidized DAB)",[3]; enhancer 10 mM,21.84 mOD/min
same,Percent increase of apparent Vmax of HRP,[3]; enhancer 10 mM,18%
same,"Vmax (apparent, HRP-oxidized DAB)","[3]; enhancer 50 mM, (sat) = reaction rate saturated by start of UV-VIS analysis",44.00 mOD/min
same,Percent increase of apparent Vmax of HRP,[3]; enhancer 50 mM,138%
same,"Vmax (apparent, HRP-oxidized DAB)","[3]; enhancer 100 mM, (sat) = reaction rate saturated by start of UV-VIS analysis",72.00 mOD/min
same,Effect on apparent velocity of HRP when added to a preceding assay mixture of Table 2,[4],increased the apparent velocity of HRP
